Reference: the NIST ThermoML archive (doi:10.1016/j.jct.2016.02.009)
Values joined by “and” are separate entries in the source; they are usually repeats but may differ in a detail not shown here. Equal entries are not always repeated.

Test: molar heat capacity at constant pressure
Conditions: 101.33 kPa, Small (less than 1 g) adiabatic calorimetry

CCCCCCCCCCn1cc[n+](C)c1.O=S(=O)([N-]S(=O)(=O)C(F)(F)F)C(F)(F)F
Conditions	molar heat capacity at constant pressure
142.54 K, Metastable crystal	368.4 J/K/mol
144.48 K, Crystal 2	358.2 J/K/mol
144.48 K, Metastable crystal	372.5 J/K/mol
146.41 K, Metastable crystal	376.6 J/K/mol
146.45 K, Crystal 2	361.5 J/K/mol
148.35 K, Metastable crystal	380.7 J/K/mol
148.41 K, Crystal 2	365 J/K/mol
150 K, Crystal 2	367.5 J/K/mol
150 K, Metastable crystal	384.3 J/K/mol
150.28 K, Metastable crystal	384.8 J/K/mol
150.38 K, Crystal 2	368.2 J/K/mol
152.21 K, Metastable crystal	389.1 J/K/mol
152.35 K, Crystal 2	371.7 J/K/mol
154.14 K, Metastable crystal	393.4 J/K/mol
154.32 K, Crystal 2	375 J/K/mol
155.25 K, Crystal 2	376.4 J/K/mol
156.07 K, Metastable crystal	397.7 J/K/mol
157.33 K, Crystal 2	380.2 J/K/mol
157.99 K, Metastable crystal	402.2 J/K/mol
159.29 K, Crystal 2	383.4 J/K/mol
159.91 K, Metastable crystal	406.6 J/K/mol
160 K, Crystal 2	384.7 J/K/mol
160 K, Metastable crystal	406.8 J/K/mol
161.26 K, Crystal 2	387 J/K/mol
161.83 K, Metastable crystal	411 J/K/mol
163.22 K, Crystal 2	390.1 J/K/mol
163.75 K, Metastable crystal	415.7 J/K/mol
165.19 K, Crystal 2	393.6 J/K/mol
165.66 K, Metastable crystal	420.2 J/K/mol
167.15 K, Crystal 2	397.2 J/K/mol
167.56 K, Metastable crystal	425 J/K/mol
169.11 K, Crystal 2	400.7 J/K/mol
169.47 K, Metastable crystal	429.9 J/K/mol
170 K, Crystal 2	402.3 J/K/mol
170 K, Metastable crystal	431.2 J/K/mol
171.07 K, Crystal 2	404.1 J/K/mol
171.37 K, Metastable crystal	434.6 J/K/mol
173.03 K, Crystal 2	407.6 J/K/mol
173.27 K, Metastable crystal	440 J/K/mol
174.98 K, Crystal 2	411.2 J/K/mol
175.16 K, Metastable crystal	445.5 J/K/mol
176.93 K, Crystal 2	414.8 J/K/mol
177.04 K, Metastable crystal	451.4 J/K/mol
178.88 K, Crystal 2	418.4 J/K/mol
178.92 K, Metastable crystal	458.1 J/K/mol
180 K, Crystal 2	420.7 J/K/mol
180 K, Metastable crystal	462.6 J/K/mol
180.78 K, Metastable crystal	466 J/K/mol
180.83 K, Crystal 2	422.1 J/K/mol
182.64 K, Metastable crystal	476.8 J/K/mol
182.78 K, Crystal 2	426 J/K/mol
184.47 K, Metastable crystal	489.9 J/K/mol
184.72 K, Crystal 2	430 J/K/mol
186.29 K, Metastable crystal	501.9 J/K/mol
186.66 K, Crystal 2	434 J/K/mol
188.1 K, Metastable crystal	507.1 J/K/mol
188.59 K, Crystal 2	438.2 J/K/mol
189.9 K, Metastable crystal	510.3 J/K/mol
190 K, Crystal 2	440.9 J/K/mol
190 K, Metastable crystal	510.3 J/K/mol
190.52 K, Crystal 2	442.2 J/K/mol
191.71 K, Metastable crystal	511.1 J/K/mol
192.45 K, Crystal 2	446.2 J/K/mol
193.51 K, Metastable crystal	514.8 J/K/mol
194.38 K, Crystal 2	450.4 J/K/mol
195.31 K, Metastable crystal	521.6 J/K/mol
196.3 K, Crystal 2	455.3 J/K/mol
197.11 K, Metastable crystal	529.9 J/K/mol
198.22 K, Crystal 2	460.2 J/K/mol
198.89 K, Metastable crystal	539.6 J/K/mol
200 K, Crystal 2	463.2 J/K/mol
200 K, Metastable crystal	546.2 J/K/mol
200.13 K, Crystal 2	465.1 J/K/mol
200.65 K, Metastable crystal	550 J/K/mol
202.1 K, Crystal 2	470.5 J/K/mol
202.46 K, Metastable crystal	568.9 J/K/mol
204.12 K, Crystal 2	476.2 J/K/mol
204.28 K, Metastable crystal	599.4 J/K/mol
206.02 K, Metastable crystal	683.4 J/K/mol
206.13 K, Crystal 2	482 J/K/mol
207.65 K, Metastable crystal	752.9 J/K/mol
208.14 K, Crystal 2	487.2 J/K/mol
209.38 K, Metastable crystal	552.2 J/K/mol
210 K, Crystal 2	489.1 J/K/mol
210 K, Metastable crystal	513 J/K/mol
210.15 K, Crystal 2	491.5 J/K/mol
211.31 K, Metastable crystal	512.9 J/K/mol
212.15 K, Crystal 2	495.6 J/K/mol
213.27 K, Metastable crystal	512 J/K/mol
214.15 K, Crystal 2	500.9 J/K/mol
215.24 K, Metastable crystal	515.4 J/K/mol
216.13 K, Crystal 2	507 J/K/mol
217.2 K, Metastable crystal	523.2 J/K/mol
218.12 K, Crystal 2	513.6 J/K/mol
219.17 K, Metastable crystal	551.8 J/K/mol
220 K, Crystal 2	519.8 J/K/mol
220.09 K, Crystal 2	520.6 J/K/mol
221.12 K, Metastable crystal	812.2 J/K/mol
222.05 K, Crystal 2	528.2 J/K/mol
224 K, Crystal 2	536.2 J/K/mol
225.95 K, Crystal 2	545.3 J/K/mol
227.87 K, Crystal 2	555.4 J/K/mol
229.79 K, Crystal 2	567 J/K/mol
230 K, Crystal 2	569.2 J/K/mol
231.68 K, Crystal 2	580.6 J/K/mol
233.56 K, Crystal 2	594.7 J/K/mol
235.42 K, Crystal 2	610.3 J/K/mol
237.26 K, Crystal 2	624.9 J/K/mol
239.07 K, Crystal 2	641 J/K/mol
240 K, Crystal 2	651.3 J/K/mol
240.86 K, Crystal 2	665.1 J/K/mol
242.62 K, Crystal 2	694.9 J/K/mol
244.33 K, Crystal 2	733.6 J/K/mol
245.99 K, Crystal 2	789 J/K/mol
247.56 K, Crystal 2	885.2 J/K/mol
249 K, Crystal 1	1053 J/K/mol
249 K, Crystal 2	1053 J/K/mol
249.01 K, Crystal 1	1053 J/K/mol
250.61 K, Crystal 1	627.9 J/K/mol
252 K, Crystal 1	619.2 J/K/mol
252.45 K, Crystal 1	620.8 J/K/mol
254.29 K, Crystal 1	629.9 J/K/mol
256.12 K, Crystal 1	642.5 J/K/mol
257.94 K, Crystal 1	658.6 J/K/mol
259.72 K, Crystal 1	680.3 J/K/mol
260 K, Crystal 1	648.7 J/K/mol
261.48 K, Crystal 1	710 J/K/mol
263.19 K, Crystal 1	751.8 J/K/mol
263.96 K, Liquid	730.6 J/K/mol
264.85 K, Crystal 1	795.1 J/K/mol
265.87 K, Liquid	731.7 J/K/mol
266.46 K, Crystal 1	822.8 J/K/mol
267.69 K, Liquid	733 J/K/mol
268.04 K, Crystal 1	872.1 J/K/mol
269.51 K, Liquid	734.3 J/K/mol
269.56 K, Crystal 1	972.8 J/K/mol
270 K, Crystal 1	687.6 J/K/mol
271.33 K, Liquid	735.9 J/K/mol
273.16 K, Liquid	736.9 J/K/mol
274.98 K, Liquid	738.2 J/K/mol
276.81 K, Liquid	739.4 J/K/mol
277.33 K, Crystal 1	717.5 J/K/mol
277.33 K, Liquid	739.7 J/K/mol
278.63 K, Liquid	740.6 J/K/mol
278.84 K, Liquid	741.1 J/K/mol
280 K, Liquid	741.6 J/K/mol
280.45 K, Liquid	741.8 J/K/mol
280.56 K, Liquid	742.3 J/K/mol
282.28 K, Liquid	743.2 J/K/mol and 742.8 J/K/mol
284 K, Liquid	744.4 J/K/mol
284.1 K, Liquid	744.5 J/K/mol
285.72 K, Liquid	745.6 J/K/mol
285.92 K, Liquid	745.7 J/K/mol
287.44 K, Liquid	747.1 J/K/mol
287.75 K, Liquid	746.9 J/K/mol
289.16 K, Liquid	747.9 J/K/mol
289.57 K, Liquid	748.4 J/K/mol
290 K, Liquid	748.8 J/K/mol
290.88 K, Liquid	749.4 J/K/mol
291.4 K, Liquid	749.8 J/K/mol
292.6 K, Liquid	750.6 J/K/mol
293.22 K, Liquid	750.8 J/K/mol
294.32 K, Liquid	751.9 J/K/mol
295.05 K, Liquid	752.4 J/K/mol
296.04 K, Liquid	753.2 J/K/mol
296.87 K, Liquid	753.9 J/K/mol
297.77 K, Liquid	754.3 J/K/mol
298.15 K, Liquid	754.8 J/K/mol
298.69 K, Liquid	755.1 J/K/mol
299.49 K, Liquid	755.7 J/K/mol
300 K, Liquid	756.2 J/K/mol
301.26 K, Liquid	757.2 J/K/mol
303.08 K, Liquid	758.7 J/K/mol
304.91 K, Liquid	759.9 J/K/mol
306.73 K, Liquid	761.3 J/K/mol
308.56 K, Liquid	762.8 J/K/mol
310 K, Liquid	763.8 J/K/mol
310.38 K, Liquid	764.3 J/K/mol
312.21 K, Liquid	765.5 J/K/mol
314.03 K, Liquid	766.8 J/K/mol
315.86 K, Liquid	768.4 J/K/mol
317.69 K, Liquid	769.8 J/K/mol
319.51 K, Liquid	771.1 J/K/mol
320 K, Liquid	771.5 J/K/mol
321.34 K, Liquid	772.8 J/K/mol
323.17 K, Liquid	774.3 J/K/mol
324.99 K, Liquid	775.7 J/K/mol
326.82 K, Liquid	777.2 J/K/mol
328.64 K, Liquid	778.5 J/K/mol
330 K, Liquid	779.5 J/K/mol
330.47 K, Liquid	779.9 J/K/mol
332.29 K, Liquid	781.6 J/K/mol
334.12 K, Liquid	783.1 J/K/mol
335.95 K, Liquid	784.6 J/K/mol
337.77 K, Liquid	786 J/K/mol
339.6 K, Liquid	787.5 J/K/mol
340 K, Liquid	787.7 J/K/mol
341.42 K, Liquid	788.9 J/K/mol
343.25 K, Liquid	789.9 J/K/mol
345.08 K, Liquid	791.3 J/K/mol
346.91 K, Liquid	793.1 J/K/mol
348.74 K, Liquid	794.8 J/K/mol
350 K, Liquid	796 J/K/mol
350.57 K, Liquid	796.5 J/K/mol
352.4 K, Liquid	797.8 J/K/mol
354.23 K, Liquid	799.5 J/K/mol
356.06 K, Liquid	801.2 J/K/mol
357.89 K, Liquid	802.8 J/K/mol
359.72 K, Liquid	804.3 J/K/mol
360 K, Liquid	804.6 J/K/mol
361.55 K, Liquid	806 J/K/mol
363.37 K, Liquid	807.7 J/K/mol
365.2 K, Liquid	809.1 J/K/mol
367.03 K, Liquid	810.8 J/K/mol
368.86 K, Liquid	812.7 J/K/mol
370 K, Liquid	813.4 J/K/mol
